Data taken from US20100113613A1, “CYCLOHEXANE POLYALCOHOL FORMULATION FOR TREATMENT OF DISORDERS OF PROTEIN AGGREGATION” (WARATAH PHARMACEUTICALS, priority 2006, published 2010).

Tests used:
in vivo [1] = conditions: dog, po
Protocol: (§1) Three studies were performed to investigate the pharmacokinetics of oral administration of a scyllo-cyclohexanehexyl (Table 1):
Two studies have investigated the single dose PK of oral administration of a scyllo-cyclohexanehexyl in dogs. The 14 day study investigated 18 animals. On Day 1 of this study Cmax and AUC values increased proportionally with dose level of a scyllo-cyclohexanehexyl. […] The extensive brain penetrance of the scyllo-cyclohexanhexyl (see below) may be relevant in this regard.

[2] = Brain penetrance: plasma and CSF pharmacokinetics after single oral doses in dogs; format: in vivo, dog; conditions: dog
Excerpt: CSF bathes the central nervous system and sits on the inside of the blood brain barrier. Although a centrally-acting drug will still need to penetrate brain tissue to exert an effect, quantification of drug in CSF may provide a gross estimate of brain-penetrance.

in vivo [3] = conditions: rat, po
Protocol: as §1
Plasma pharmacokinetics (PK) of a scyllo-cyclohexanehexyl in rats was assessed after single oral doses of 15, 50 and 150 mg/kg. After single oral doses in rats, maximum plasma concentration (Cmax) and exposure (AUC0-t) values increased proportionally with dose level of the scyllo-cyclohexanehexyl. Other parameters were unchanged with dose level. The scyllo-cyclohexanehexyl was absorbed rapidly, with mean tmax observed between 1.0 and 2.2 hours post-dose. […] Estimates of mean residence time (MRT) were consistent. Volumes of distribution (Vdss) were large, indicating wide distribution of scyllo-cyclohexanehexyl in rats.

in vivo [4] = conditions: dog
Protocol: Plasma PK of a scyllo-cyclohexanhexyl in dogs was assessed after 14 days oral dosing of 15, 50 and 150 mg/kg, administered twice daily. As on Day 1 of this study Cmax and AUC values increased proportionally with dose level of scyllo-cyclohexanehexyl. However, dose-normalised exposures appeared to decrease with dose. This contrasts with positive trend observed after acute exposure. […] As for single doses, the scyllo-cyclohexanehexyl was absorbed rapidly, with tmax observed between 1.1 and 1.8 hours post-dose. […] Estimates of MRT were consistent. The Vdss and Cl/F values were similar for all dose levels.

[5] = CSF, single oral dose 240 mg/kg
[6] = PLASMA LEVELS, single oral dose 20 mg/kg
[7] = PLASMA LEVELS, single oral dose 80 mg/kg
[8] = PLASMA LEVELS, single oral dose 240 mg/kg

AUC(0-inf) (in vivo [1]; 15 mg/kg): 23.8 ± 4.5 µg·h/mL
AUC(0-t) (in vivo [1]; 15 mg/kg): 22.6 ± 4.5 µg·h/mL
CL/F (in vivo [1]; 15 mg/kg): 3.04 mL/min/kg
Cmax (in vivo [1]; 15 mg/kg): 10000 ± 2500 ng/mL
MRT (in vivo [1]; 15 mg/kg): 3.5 ± 0.8 h
Tmax (in vivo [1]; 15 mg/kg): 1.7 ± 0.5 h
VdSS (in vivo [1]; 15 mg/kg): 0.6325 ± 0.2371 L/kg
half-life (in vivo [1]; 15 mg/kg): 2 ± 0.8 h
kel (in vivo [1]; 15 mg/kg): 0.4 ± 0.2 h⁻¹
AUC(0-inf) (in vivo [1]; 50 mg/kg): 116 ± 22.8 µg·h/mL
AUC(0-t) (in vivo [1]; 50 mg/kg): 114 ± 22.9 µg·h/mL
CL/F (in vivo [1]; 50 mg/kg): 2.07 mL/min/kg
Cmax (in vivo [1]; 50 mg/kg): 47400 ± 12700 ng/mL
MRT (in vivo [1]; 50 mg/kg): 2.9 ± 0.3 h
Tmax (in vivo [1]; 50 mg/kg): 1.2 ± 0.4 h
VdSS (in vivo [1]; 50 mg/kg): 0.3659 ± 0.1219 L/kg
half-life (in vivo [1]; 50 mg/kg): 2.1 ± 0.3 h
kel (in vivo [1]; 50 mg/kg): 0.3 ± 0.04 h⁻¹
AUC(0-inf) (in vivo [1]; 150 mg/kg): 455 ± 121 µg·h/mL
AUC(0-t) (in vivo [1]; 150 mg/kg): 450 ± 118 µg·h/mL
CL/F (in vivo [1]; 150 mg/kg): 1.56 mL/min/kg
Cmax (in vivo [1]; 150 mg/kg): 124000 ± 22700 ng/mL
MRT (in vivo [1]; 150 mg/kg): 3.3 ± 0.3 h
Tmax (in vivo [1]; 150 mg/kg): 2.2 ± 0.4 h
VdSS (in vivo [1]; 150 mg/kg): 0.3074 ± 0.0744 L/kg
half-life (in vivo [1]; 150 mg/kg): 1.7 ± 0.2 h
kel (in vivo [1]; 150 mg/kg): 0.4 ± 0.05 h⁻¹
AUC(0-inf) ([2]; CSF, single oral dose 20 mg/kg): 38 ± 22.8 µg·h/mL
AUC(0-t) ([2]; CSF, single oral dose 20 mg/kg): 20.6 ± 6.6 µg·h/mL
Cmax ([2]; CSF, single oral dose 20 mg/kg): 2300 ± 1400 ng/mL
Tmax ([2]; CSF, single oral dose 20 mg/kg): 4 ± 1.7 h
AUC(0-inf) ([2]; CSF, single oral dose 80 mg/kg): 103 ± 13.1 µg·h/mL
AUC(0-t) ([2]; CSF, single oral dose 80 mg/kg): 98 ± 13.2 µg·h/mL
Cmax ([2]; CSF, single oral dose 80 mg/kg): 18700 ± 1000 ng/mL
Tmax ([2]; CSF, single oral dose 80 mg/kg): 2.8 ± 1.5 h
AUC(0-inf) [2, 5]: 401 ± 204 µg·h/mL
AUC(0-t) [2, 5]: 384 ± 204 µg·h/mL
Cmax [2, 5]: 67400 ± 28600 ng/mL
Tmax [2, 5]: 3 ± 1.7 h
AUC(0-inf) [2, 6]: 52.7 ± 17.9 µg·h/mL
AUC(0-t) [2, 6]: 42.6 ± 9.6 µg·h/mL
Cmax [2, 6]: 6100 ± 3600 ng/mL
Tmax [2, 6]: 2.8 ± 2.2 h
AUC(0-inf) [2, 7]: 255 ± 58.6 µg·h/mL
AUC(0-t) [2, 7]: 250 ± 59.3 µg·h/mL
Tmax [2, 7]: 2.3 ± 1.3 h
AUC(0-inf) [2, 8]: 528 ± 74.6 µg·h/mL
AUC(0-t) [2, 8]: 514.5 ± 0.3 µg·h/mL
Cmax [2, 8]: 101000 ± 17800 ng/mL
Tmax [2, 8]: 2.3 ± 1.5 h
AUC(0-inf) (in vivo [3]; 15 mg/kg): 41.9 ± 11.9 µg·h/mL
AUC(0-t) (in vivo [3]; 15 mg/kg): 39.7 ± 11.3 µg·h/mL
CL/F (in vivo [3]; 15 mg/kg): 12.8 mL/min/kg
Cmax (in vivo [3]; 15 mg/kg): 13200 ± 2000 ng/mL
MRT (in vivo [3]; 15 mg/kg): 3.7 ± 0.5 h
Tmax (in vivo [3]; 15 mg/kg): 1 h
Vd (in vivo [3]; 15 mg/kg): 2.82 L/kg
half-life (in vivo [3]; 15 mg/kg): 2.7 ± 0.6 h
kel (in vivo [3]; 15 mg/kg): 0.27 ± 0.07 h⁻¹
AUC(0-inf) (in vivo [3]; 50 mg/kg): 169 ± 31.8 µg·h/mL
AUC(0-t) (in vivo [3]; 50 mg/kg): 163 ± 29 µg·h/mL
CL/F (in vivo [3]; 50 mg/kg): 10.1 mL/min/kg
Cmax (in vivo [3]; 50 mg/kg): 45300 ± 7100 ng/mL
MRT (in vivo [3]; 50 mg/kg): 3.6 ± 0.6 h
Tmax (in vivo [3]; 50 mg/kg): 1.5 ± 0.5 h
Vd (in vivo [3]; 50 mg/kg): 2.13 L/kg
half-life (in vivo [3]; 50 mg/kg): 2.4 ± 0.2 h
kel (in vivo [3]; 50 mg/kg): 0.29 ± 0.02 h⁻¹
AUC(0-inf) (in vivo [3]; 150 mg/kg): 552 ± 154 µg·h/mL
AUC(0-t) (in vivo [3]; 150 mg/kg): 537 ± 154 µg·h/mL
CL/F (in vivo [3]; 150 mg/kg): 9.55 mL/min/kg
Cmax (in vivo [3]; 150 mg/kg): 131000 ± 54800 ng/mL
MRT (in vivo [3]; 150 mg/kg): 3.9 ± 0.7 h
Tmax (in vivo [3]; 150 mg/kg): 2.2 ± 1.5 h
Vd (in vivo [3]; 150 mg/kg): 2.24 L/kg
half-life (in vivo [3]; 150 mg/kg): 2.1 ± 0.2 h
kel (in vivo [3]; 150 mg/kg): 0.33 ± 0.03 h⁻¹
kel (in vivo [4]; 15 mg/kg): 0.2 ± 0.08 h⁻¹
kel (in vivo [4]; 50 mg/kg): 0.2 ± 0.1 h⁻¹
kel (in vivo [4]; 150 mg/kg): 0.3 ± 0.04 h⁻¹
AUC(0-inf) (in vivo [4]; po, 15 mg/kg): 95.2 ± 18.6 µg·h/mL
AUC(0-t) (in vivo [4]; po, 15 mg/kg): 75.2 ± 9.4 µg·h/mL
CL/F (in vivo [4]; po, 15 mg/kg): 0.698 mL/min/kg
Cmax (in vivo [4]; po, 15 mg/kg): 16400 ± 4500 ng/mL
MRT (in vivo [4]; po, 15 mg/kg): 7.4 ± 1.5 h
Tmax (in vivo [4]; po, 15 mg/kg): 1.7 ± 0.5 h
VdSS (in vivo [4]; po, 15 mg/kg): 0.3017 ± 0.0419 L/kg
half-life (in vivo [4]; po, 15 mg/kg): 4.7 ± 2 h
AUC(0-inf) (in vivo [4]; po, 50 mg/kg): 262 ± 52.4 µg·h/mL
SMILES: OC1C(O)C(O)C(O)C(O)C1O (centres unmarked) [AZD-103, scyllo-inositol]
